Reference: patent publication US7319094B2, “Increased and sustained in vivo gene expression using a nucleic acid, histone and amphipathic compound composition” (Rhode Island Hospital, priority 2001, dated 2008)

Legend:
GAPDH = GAPDH immunoreactivity in AD7c-NTP-transfected PNET2 cells, MICE assay; assay type: cell-based, human; conditions: IPTG 3 mM
From the text: The MICE assay is known in the art (e.g., as described by de la Monte et al., 1999, Biotechniques 26:107301076). The assay is a rapid and sensitive method for quantifying immunoreactivity in 96-well micro-cultures and combines the advantages of the enzyme-linked immunosorbant assay with immunocytochemical staining to permit sensitive in situ quantification of protein expression with values normalized to cell density. The cells were fixed in Histochoice (Amresco, Solon, Ohio), permeabilized with 0.05% saponin in Tris-buffered saline (50 mM Tris, pH 7.5, 0.9% NaCl; TBS), and blocked with Superblock-TBS (Pierce, Rockford, Ill.). […] Immunoreactivity was detected using horseradish peroxidase conjugated secondary antibody (Pierce, Rockford, Ill.) and the TMB soluble peroxidase substrate (Pierce, Rockford, Ill.). Absorbances were measured at 450 nm using a Spectracount plate reader.
To compare the levels of protein expression it was necessary to correct for differences in cell density. […] The absorbances (560 nm) were measured using a Spectracount plate reader (Packard Instrument Company, Meriden, Conn.). The MICE index was calculated from the ratio of the absorbances measured for immunoreactivity and cell density. Coomassie blue absorbance increases linearly with cell density between 1×10^4 and 5×10^5 cells per well. Eight or 16 replicate culture wells were analyzed in each experiment. […]

AD7c-NTP = AD7c-NTP expression in stably transfected PNET2 cells (LacSwitch II inducible system), Western blot / MICE assay; assay type: cell-based, human
From the text: Prior to the invention, cells stably transfected with AD7c-NTP could not be maintained because of progressive cell death. Therefore, an inducible system of AD7c-NTP expression was established using the LacSwitch II mammalian expression vector (Stratagene, La Jolla, Calif.). PNET2 human CNS neuronal cells were stably transfected with the pCMVLacII vector in which the Lac repressor protein driven by a CMV promoter. The Lac repressor protein is targeted to the nucleus by the nuclear localization sequence. […]
Standard Western blot assays wew used to measure cellular levels of p53, Bcl-2, p21/Waf1, phospho-tau, tau, c-fos, NTP, and activated (phosphorylated) forms of Erk mitogen activated protein (MAP) kinase, amino-terminal c-jun-activated kinase (pJNK), and p38/HOG1. […] Protein concentrations were measured using the BCA assay (Pierce, Rockford, Ill.). Samples containing 60 μg of protein were fractionated by sodium dodecyl sulfate polyacrylamide gel electrophoresis (SDS-PAGE), then transferred to PVDF membranes, and analyzed by Western immunoblotting. Immunoreactivity was detected with horseradish peroxidase conjugated secondary IgG and PicoWest enhanced chemiluminescence reagents (Pierce Chemical Company, Rockford, Ill.). CAT activity was measured using known methods. […]

levels of GAPDH (MICE assay) (GAPDH): no change | increase in N314-immunoreactive NTP (MICE assay) (AD7c-NTP; IPTG 3 mM, 24 hours of induction): greater than five-fold
Structure (SMILES): CC(C)S[C@@H]1O[C@H](CO)[C@H](O)[C@H](O)[C@H]1O [IPTG, Isopropyl-1-[…]-D-thiogalactopyranoside]
optimum concentration for inducing gene expression (AD7c-NTP; PNET2 clones): 3 mM
